According to PMC12420824, “Discovery of a selective alpha-kinase 1 inhibitor for the rare genetic disease ROSAH syndrome” (Nature Communications, 2025):

These compounds were tested against T1, full-length ALPK1 (Homo sapiens, UniProt Q96QP1) (assay: Thermal shift assay (TSA)). Details: pilot TSA screen / assay validation.
T1 construct: recombinant full-length ALPK1 kinase purified from Sf9 cells; 3xFlag (C); made in house; host or cells: Sf9 insect cells (baculovirus, pFAST-BAC)
Assay type: binding
Description: A small molecule library containing ~160,000 compounds (HTS Diversity V2) was prepared by WuXi AppTec (Shanghai, China) in 384 well thin-wall qPCR plates, with 20 nL of 10 mM compound preparations in each well. On each screening plate, 2 columns of wells were loaded with 20 nL of pure DMSO to leave spaces for negative controls (no compounds) and the positive control (AS-252424). […] The mixture was spun down at 1000 rpm for 1 min, then immediately applied to a protein melting reaction on a Roche LightCycler® 480 II Real-time PCR system, heating the mixture from 30 °C to 50 °C at the ramp rate of 0.02 °C/s while continuously acquiring the fluorescence signal. The melting temperature (Tm) of the ALPK1 protein with or without each compound was calculated using the Protein Thermal Shift™ Analysis Desktop Software v1.2 (Thermo Fisher Scientific). For positive control wells, 40 μM AS-252424 in 5 μl compound solvent was added manually and used as a positive control in the thermal shift screening.

T1 sequence (Q96QP1 whole entry): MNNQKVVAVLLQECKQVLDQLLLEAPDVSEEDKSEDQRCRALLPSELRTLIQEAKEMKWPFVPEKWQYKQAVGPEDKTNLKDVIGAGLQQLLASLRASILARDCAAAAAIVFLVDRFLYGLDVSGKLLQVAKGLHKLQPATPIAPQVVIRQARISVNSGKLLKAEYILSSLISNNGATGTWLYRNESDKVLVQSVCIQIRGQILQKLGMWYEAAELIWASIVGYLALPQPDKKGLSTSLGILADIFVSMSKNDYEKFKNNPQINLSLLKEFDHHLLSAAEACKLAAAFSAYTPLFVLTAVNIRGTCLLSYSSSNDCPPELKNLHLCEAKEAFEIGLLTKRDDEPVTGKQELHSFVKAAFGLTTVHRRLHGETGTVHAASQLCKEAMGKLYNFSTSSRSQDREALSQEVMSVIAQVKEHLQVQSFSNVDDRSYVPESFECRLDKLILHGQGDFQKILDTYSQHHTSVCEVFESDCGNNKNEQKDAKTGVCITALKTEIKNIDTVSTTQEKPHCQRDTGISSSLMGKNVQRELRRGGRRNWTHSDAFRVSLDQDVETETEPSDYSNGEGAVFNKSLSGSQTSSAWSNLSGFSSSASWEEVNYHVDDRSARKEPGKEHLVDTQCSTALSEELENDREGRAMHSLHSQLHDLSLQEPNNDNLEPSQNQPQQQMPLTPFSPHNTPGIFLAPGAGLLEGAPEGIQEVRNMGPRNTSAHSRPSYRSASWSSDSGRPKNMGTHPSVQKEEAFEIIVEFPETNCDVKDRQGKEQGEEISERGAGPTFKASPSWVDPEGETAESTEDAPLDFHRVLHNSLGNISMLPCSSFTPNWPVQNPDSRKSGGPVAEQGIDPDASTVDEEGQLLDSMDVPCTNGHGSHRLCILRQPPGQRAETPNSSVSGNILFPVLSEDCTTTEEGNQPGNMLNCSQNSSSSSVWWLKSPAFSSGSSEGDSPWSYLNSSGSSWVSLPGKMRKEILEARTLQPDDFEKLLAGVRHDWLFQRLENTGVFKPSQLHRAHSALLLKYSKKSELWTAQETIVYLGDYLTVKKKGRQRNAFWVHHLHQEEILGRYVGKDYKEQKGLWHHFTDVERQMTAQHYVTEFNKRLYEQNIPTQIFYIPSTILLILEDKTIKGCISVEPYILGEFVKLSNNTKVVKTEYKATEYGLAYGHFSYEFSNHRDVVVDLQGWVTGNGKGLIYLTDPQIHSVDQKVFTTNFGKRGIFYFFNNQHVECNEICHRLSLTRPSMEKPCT

SMILES | increase in melting temperature (Tm) [°C]
Nc1ncnc2c1ncn2[C@@H]1O[C@H](COP(=O)(O)OP(=O)(O)OP(=O)(O)O)[C@@H](O)[C@H]1O [ATP] | 1.1

Each compound was assayed against ALPK1 (Homo sapiens, UniProt Q96QP1) (assay: TR-FRET (HTRF) kinase assay). Details: 6.25 µM ATP, 20 nM ADP-D-heptose.
ALPK1, sequence (Q96QP1 whole entry): as above
Description: The 10 µL kinase reactions were allowed to proceed for 1.5 h at 27 °C. Kinase reactions were terminated by adding 10 µL of the HTRF KinEASE detection kit buffer (Cisbio, Bedford, MA, USA; 62SDBRDF) containing monoclonal anti-HA-Eu cryptate (Cisbio; 610HAKLB) and monoclonal Anti HA-d2 to each well. TIFA phosphorylation levels were monitored through the detection of oligomerization signals generated upon TIFAsome assembly. Both donor and acceptor antibodies recognize TIFA and will generate a TR-FRET signal when bound to the same TIFA oligomer formed upon TIFA phosphorylation. […] The TR-FRET signals were calculated as the ratio of the acceptor and donor emission signals with the formula below:
ALPK1 kinase activity was calculated as follows: % Activity = 100% × (TR-FRET signal of test compound - mean TR-FRET signal of no ATP 1% DMSO control) / (mean TR-FRET signal of 1% DMSO control – mean TR-FRET signal of no ATP 1% DMSO control).
In multi-dose assays, compound activity was calculated via logarithmic interpolation. Concentration-response curves were fitted with a four-parameter logistic nonlinear regression model and the IC50 values for these compounds were calculated in GraphPad Prism 6.

SMILES | HTRF Assay (IC50)
COc1ccccc1CNC(=O)Nc1nc(C(C)(C)c2cccc(Br)c2)cs1 [Compound 6] | No activity
COc1ccccc1CNC(=O)Nc1nc(C2(c3ccccc3)CCC2)cs1 [Compound 8] | No activity
COc1ccccc1CNC(=O)Nc1nc(C2(c3ccccc3)CC2)cs1 [Compound 7] | No activity

Same assay, conditions: read-out: HTRF Assay (IC50); 6.25 µM ATP, 20 nM ADP-D-heptose

SMILES | IC50 [µM]
C#CC(C)(c1ccc(Br)cc1)c1csc(NC(N)=O)n1 (centres unmarked) [Compound 30] | 0.13
COc1cccc2sc(NC(=O)c3c(F)cccc3F)nc12 [Compound 35] | 1.3
COCCNC(=O)Nc1nc(C(C)(C)c2ccc(Br)cc2)cs1 [Compound 28] | 1.13
O=C(NCc1ccc(N2CCNCC2)cc1)Nc1nc(C(CO)c2ccc(Br)cc2)cs1 (centres unmarked) [Compound 16] | 5.62
C#CC(C)(c1ccc(Cl)cc1)c1csc(NC(=O)c2c(F)cc(N3CCN(C)CC3)cc2F)n1 (centres unmarked) [Compound 51] | 0.425
C#CC(C)(c1ccc(Cl)c(F)c1)c1csc(NC(=O)c2c(F)cc(N3CCNCC3)cc2F)n1 (centres unmarked) [Compound 67] | 0.017
CC(C)(c1ccc(Br)cc1)c1csc(NC(=O)NCc2ccc(N3CCNCC3)cc2)n1 [Compound 18] | 0.13
COc1ccccc1CNC(=O)Nc1nc(C(C)(C)c2ccccc2)cs1 [Compound 4] | 2.2
C#CC(C)(c1ccc(C)cc1)c1csc(NC(=O)c2c(F)cc(N3CCNCC3)cc2F)n1 (centres unmarked) [Compound 68] | 0.013
COc1ccc(C(C)(C)c2csc(NC(=O)NCc3ccc(N4CCNCC4)c(F)c3)n2)cc1 [Compound 21] | 0.084
CCC(C)(c1ccc(Br)cc1)c1csc(NC(=O)NCc2ccc(N3CCNCC3)cc2)n1 (centres unmarked) [Compound 19] | 0.429
CC(C)(c1ccc(C#N)cc1)c1csc(NC(=O)NCc2ccc(N3CCNCC3)cc2)n1 [Compound 13] | 0.236
C#CC(C)(c1ccc(Cl)cc1)c1csc(NC(=O)c2c(F)ccc(OC)c2F)n1 (centres unmarked) [Compound 47] | 1.55
COCC(C)(c1ccc(Cl)cc1)c1csc(NC(=O)NCCO)n1 (centres unmarked) [Compound 33] | 0.558
C#CC(C)(c1ccc(Cl)cc1)c1csc(NC(=O)c2c(F)cc(N3CCNCC3CC)cc2F)n1 (centres unmarked) [Compound 58] | 0.07
CC(C)(c1ccc(O)cc1)c1csc(NC(=O)NCc2ccc(N3CCNCC3)cc2)n1 [Compound 22] | 0.732
CC(C)(c1ccc(Br)cc1)c1csc(NC(=O)NCc2ccc(N3CCNCC3)c(F)c2)n1 [Compound 23] | 0.138
COc1ccccc1CNC(=O)Nc1nc(C(C)c2ccccc2)cs1 (centres unmarked) [Compound 9] | 3.75
C#CC(C)(c1ccc(OC(F)F)cc1)c1csc(NC(=O)c2c(F)cc(N3CCNCC3)cc2F)n1 (centres unmarked) [Compound 73] | 0.073
COc1ccccc1CNC(=O)Nc1nc(C(C)(C)c2ccc(Br)cc2)cs1 [Compound 5] | 1.1
COc1cccc2sc(NC(=O)c3c(F)cc(OCCO)cc3F)nc12 [Compound 40] | 0.56
C#CC(C)(c1ccc(Cl)cc1)c1csc(NC(=O)c2c(F)cc(N3CCC(N)C3)cc2F)n1 (centres unmarked) [Compound 54] | 0.031
C#CC(C)(c1ccc(F)cc1)c1csc(NC(=O)c2c(F)cc(N3CCNCC3)cc2F)n1 (centres unmarked) [Compound 64] | 0.014

SMILES | IC50 [µM]
C#CC(C)(c1ccc(Cl)cc1)c1csc(NC(=O)c2ccc(N3CCNCC3)nc2)n1 (centres unmarked) [Compound 46] | 0.167
COc1cc(CNC(=O)Nc2nc(C(C)(C)c3ccc(Br)cc3)cs2)ccc1N1CCNCC1 [Compound 26] | 0.161
C#CC(C)(c1ccc(Cl)cc1)c1csc(NC(=O)c2ccc(N3CCNCC3)cc2F)n1 (centres unmarked) [Compound 48] | 0.151
CC(C)(c1ccc(F)cc1)c1csc(NC(=O)c2c(F)cc(N3CCNCC3)cc2F)n1 [Compound 61] | 0.023
CC(C)(c1ccc(Br)cc1)c1csc(NC(=O)NCc2ccc(N3CCNCC3)c(Cl)c2)n1 [Compound 24] | 0.233
Cc1cc(CNC(=O)Nc2nc(C(C)(C)c3ccc(Br)cc3)cs2)ccc1N1CCNCC1 [Compound 25] | 0.462
C#CC(C)(c1csc(NC(=O)c2c(F)cc(N3CCNCC3)cc2F)n1)c1ccc(Cl)cc1F (centres unmarked) [Compound 65] | 0.077
COc1cccc2sc(NC(=O)c3c(F)cc(N4CCN(CCO)CC4)cc3F)nc12 [Compound 42] | 5.31
C#CC(C)(c1ccc(Cl)cc1)c1csc(NC(=O)c2c(F)cc(NCCO)cc2F)n1 (centres unmarked) [Compound 52] | 0.405
COCC(C)(c1ccccc1)c1csc(NC(=O)c2c(F)cc(N3CCNCC3)cc2F)n1 (centres unmarked) [Compound 62] | 0.182
COc1cccc2sc(NC(=O)c3c(F)cc(N4CCC(O)C4)cc3F)nc12 (centres unmarked) [Compound 39] | 3.19
C#CC(C)(c1ccc(Cl)cc1)c1csc(NC(=O)c2ccc(N3CCNCC3)cc2)n1 (centres unmarked) [Compound 45] | 0.038
COCC(C)(c1ccc(Cl)cc1)c1csc(NC(=O)c2c(F)cc(N3CCNCC3)cc2F)n1 (centres unmarked) [Compound 74] | 0.042
C#CC(C)(c1ccc(Cl)cc1)c1csc(NC(=O)c2c(Cl)cc(N3CCNCC3)cc2Cl)n1 (centres unmarked) [Compound 53] | 0.312
CC(C)(c1ccc(C2CC2)cc1)c1csc(NC(=O)NCc2ccc(N3CCNCC3)cc2)n1 [Compound 12] | 0.155
CC(c1ccc(Br)cc1)c1csc(NC(=O)NCc2ccc(N3CCNCC3)cc2)n1 (centres unmarked) [Compound 17] | 0.391
COc1cccc2sc(NC(=O)c3c(F)cc(N4CCNC(C)C4)cc3F)nc12 (centres unmarked) [Compound 44] | 0.349
C#CC(CC)(c1ccc(Br)cc1)c1csc(NC(=O)NCCO)n1 (centres unmarked) [Compound 32] | 0.886
CC(C)(c1ccccc1)c1csc(NC(=O)NCc2ccccc2)n1 [Compound 3] | 2.1
CC(C)(c1ccc(I)cc1)c1csc(NC(=O)NCc2ccc(N3CCNCC3)cc2)n1 [Compound 15] | 0.284
C#CC(C)(c1ccc(Cl)cc1)c1csc(NC(=O)c2c(F)cc(N3CCNC(CO)C3)cc2F)n1 (centres unmarked) [Compound 55] | 0.317
CC(c1ccccc1)(c1ccc(Cl)cc1)c1csc(NC(=O)c2c(F)cc(N3CCNCC3)cc2F)n1 (centres unmarked) [Compound 70] | 0.577
O=C(Nc1nc(Cc2ccccn2)cs1)c1c(F)cc(N2CCNCC2)cc1F [Compound 60] | 1.27

SMILES | IC50 [µM]
O=C(NCc1ccccc1)Nc1nc(C2(c3ccccc3)CCCC2)cs1 [Compound 1] | 5
COc1cccc2sc(NC(=O)c3c(F)cc(N4CCNCC4)cc3F)nc12 [Compound 43] | 0.209
CC(C)(c1ccc(Cl)cc1)c1csc(NC(=O)NCc2ccc(N3CCNCC3)cc2)n1 [Compound 11] | 0.044
CC(C)(c1ccccc1)c1csc(NC(=O)NCc2ccccc2)n1 [Compound 2] | 2.5
CC(c1ccc(Cl)cc1)(c1csc(NC(=O)c2c(F)cc(N3CCNCC3)cc2F)n1)C1CC1 (centres unmarked) [Compound 71] | 0.025
CC#CC(C)(c1ccc(Cl)cc1)c1csc(NC(=O)c2c(F)cc(N3CCNCC3)cc2F)n1 (centres unmarked) [Compound 69] | 0.045
C#CC(CC)(c1ccc(Cl)cc1)c1csc(NC(=O)c2c(F)cc(N3CCNCC3)cc2F)n1 (centres unmarked) [Compound 66] | 0.083
C#CC(C)(c1ccc(Cl)cc1)c1csc(NC(=O)c2c(F)cc(N3CCNCC3CO)cc2F)n1 (centres unmarked) [Compound 56] | 0.02
CC(c1ccc(Cl)cc1)c1csc(NC(=O)c2c(F)cc(N3CCNCC3)cc2F)n1 (centres unmarked) [Compound 59] | 0.27
CC(C)(c1ccc(OC(F)(F)F)cc1)c1csc(NC(=O)NCc2ccc(N3CCNCC3)cc2)n1 [Compound 10] | 1.13
C#CC(C)(c1ccc(OC)cc1)c1csc(NC(=O)c2c(F)cc(N3CCNCC3)cc2F)n1 (centres unmarked) [Compound 72] | 0.018
O=C(Nc1nc(C2(c3ccc(Br)cc3)CCCC2)cs1)c1c(F)cc(N2CCNCC2)cc1F [Compound 63] | 0.437
COc1cccc2sc(NC(=O)c3c(F)cc(N4CCN(Cc5ccccc5)C(=O)C4)cc3F)nc12 [Compound 36] | 0.321
C#CC(C)(c1ccc(Br)cc1)c1csc(NC(=O)NCCO)n1 (centres unmarked) [Compound 29] | 0.071
C#CC(C)(c1ccc(OC)cc1)c1csc(NC(N)=O)n1 (centres unmarked) [Compound 31] | 0.094
C#CC(C)(c1ccc(Cl)cc1)c1csc(NC(N)=O)n1 (centres unmarked) [Compound 34] | 0.048
COc1ccc(C(C)(C)c2csc(NC(=O)NCc3ccc(N4CCNCC4)cc3)n2)cc1 [Compound 20] | 0.122
COc1cccc2sc(NC(=O)c3c(F)cc(NCCN(C)C)cc3F)nc12 [Compound 37] | 0.507
COc1cccc2sc(NC(=O)c3c(F)cc(N4CCC(N)C4)cc3F)nc12 (centres unmarked) [Compound 38] | 0.125
COc1cccc2sc(NC(=O)c3c(F)cc(N4CCC(CO)CC4)cc3F)nc12 [Compound 41] | 2.28
CCOCC(C)(c1ccccc1)c1csc(NC(=O)c2c(F)cc(N3CCNCC3)cc2F)n1 (centres unmarked) [Compound 75] | 0.642
CC(C)(c1ccc(F)cc1)c1csc(NC(=O)NCc2ccc(N3CCNCC3)cc2)n1 [Compound 14] | 0.915

Same assay, conditions: read-out: IC50 in TR-FRET assay; 6.25 µM ATP, 20 nM ADP-D-heptose

SMILES | IC50 [µM]
COc1ccc(OC)c2sc(NC(=O)c3c(F)cccc3F)nc12 [Hit 2] | 11
Nc1nc(C2(c3ccccc3)CCCC2)cs1 [Hit 1] | 4
